Measurements reported in patent US8734849B2, “Multiparticle pharmaceutical dosage form containing a mucoadhesively formulated peptide or protein active substances method for producing said pharmaceutical dosage form” (Evonik Roehm GmbH, priority 2003, dated 2014).
Where a SMILES comes first, the peptide text is derived from it. [ ]: non-standard residue; d: D form. dPhe(4-Cl) = N[C@H](Cc1ccc(Cl)cc1)C(=O)O; d2Nal = N[C@H](Cc1ccc2ccccc2c1)C(=O)O; dCit = NC(=O)NCCC[C@@H](N)C(=O)O; d3Pal = N[C@H](Cc1cccnc1)C(=O)O

Assay: Solubility in water according to DAB 10
Format: physicochemical
Excerpt: The solubility in water for the active substance and the substance or substances forming the lipophilic matrix can be defined as specified in DAB 10 (Deutsches Arzneibuch, 10th edition with 3rd supplement 1994, Deutscher Apothekerverlag, Stuttgart und Govi Verlag, Frankfurt/Main, 2nd supplement (1993), IV Allgemeine Vorschriften, pp. 5-6, “Löslichkeit und Lösungsmittel”; see also Ph. Eur. Jul. 4, 2004). The solubility is defined by the number of parts by volume of solvent for 1 part by weight of substance or drug. The definition of “sparingly soluble” includes substances which require from 30 to 100 parts by volume of solvent for 1 part by weight of substance or drug, and the definition of “slightly soluble” includes substances which require from 100 to 1000 parts by volume of solvent for 1 part by weight of substance or drug.

## CC(=O)N[C@H](Cc1ccc2ccccc2c1)C(=O)N[C@H](Cc1ccc(Cl)cc1)C(=O)N[C@H](Cc1cccnc1)C(=O)N[C@@H](CO)C(=O)N[C@@H](Cc1ccc(O)cc1)C(=O)N[C@H](CCCNC(N)=O)C(=O)N[C@@H](CC(C)C)C(=O)N[C@@H](CCCNC(=N)N)C(=O)N1CCC[C@H]1C(=O)N[C@H](C)C(N)=O [Cetrorelix acetate] (Ac-[d2Nal][dPhe(4-Cl)][d3Pal]SY[dCit]LRP[dA]-NH2)
  solubility in water according to DAB 10: at least 1000 parts of water for 1 part of active substance
Equivalent of the DAB 10 parts
  solubility: 1000 µg/mL

## Erythropoetin alfa: slightly soluble protein active substance
  solubility in water according to DAB 10: at least 500 parts of water for 1 part of active substance
  solubility in water, equivalent: 2000 µg/mL
